Measurements: ChEMBL document CHEMBL5634199, “Novel Exatecan-Derived Topoisomerase-1 Inhibitors for Treating Cancer” (ACS Med Chem Lett, 2024)

Test system: JeKo-1
Test: Antiproliferative activity against human JeKo-1 cells assessed as reduction in cell viability by Cell-Titer Glo luminescent assay
Assay type: functional, cell-based

| SMILES | EC50 [nM] |
| --- | --- |
| CC[C@@]1(O)C(=O)OCc2c1cc1n(c2=O)Cc2c-1nc1cc(F)c(C)c3c1c2[C@@H](NC(=O)C(C)(O)CO)CC3 (stereo partly specified) | 1.2 |
| CC[C@@]1(O)C(=O)OCc2c1cc1n(c2=O)Cc2c-1nc1cc(F)c(C)c3c1c2[C@@H](NC(=O)C(C)(N)C(F)(F)F)CC3 (stereo partly specified) | 1.6 |
| CC[C@@]1(O)C(=O)OCc2c1cc1n(c2=O)Cc2c-1nc1cc(F)c(C)c3c1c2[C@@H](NC(=O)[C@H](O)CCO)CC3 | 1.4 |
| CC[C@@]1(O)C(=O)OCc2c1cc1n(c2=O)Cc2c-1nc1cc(F)c(C)c3c1c2[C@@H](NC(=O)[C@@H](O)CO)CC3 | 1.4 |
| CC[C@@]1(O)C(=O)OCc2c1cc1n(c2=O)Cc2c-1nc1cc(F)c(C)c3c1c2[C@@H](NC(=O)C(F)CO)CC3 (stereo partly specified) | 1.5 |
| CC[C@@]1(O)C(=O)OCc2c1cc1n(c2=O)Cc2c-1nc1cc(F)c(C)c3c1c2[C@@H](NC(=O)C(F)(F)C(C)O)CC3 (stereo partly specified) | 1.6 |
